Tests used:
Test in all cases: relative viability (nuclei count vs DMSO), 5 days (fraction); higher = more cells survive
[1] = compound: CC1(COc2ccc3c(c2)ncn3-c2ccc3cccc(N4CCC(N)CC4)c3n2)COC1 [Crenolanib] + O=C(CCCCCCC(=O)Nc1ccccc1)NO [Vorinostat] (partner 1 µM)
Procedure, shortened: (§1)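 Relative viability was taken as the ratio of nuclei in treated wells to nuclei in vehicle wells. Lung cancer cell lines in 1536-well plates received compounds by pin tool one day after seeding, either one drug alone or a fixed anchor-drug dose plus five library-drug doses (not always all listed) in √10 steps. Nuclei were counted on 4× images after 5 days of treatment, and values are medians of duplicate plates.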

[2] = compound: O=C1NC(=O)[C@@H](c2cn3c4c(cccc24)CCC3)[C@@H]1c1c[nH]c2ccccc12 [Tivantinib] + Cc1nc(Nc2ncc(C(=O)Nc3c(C)cccc3Cl)s2)cc(N2CCN(CCO)CC2)n1 [Dasatinib] (partner 0.075 µM)
Procedure, shortened: as §1

[3] = compound: O=C1NC(=O)[C@@H](c2cn3c4c(cccc24)CCC3)[C@@H]1c1c[nH]c2ccccc12 [Tivantinib] + Nc1ncn([C@H]2C[C@H](O)[C@@H](CO)O2)c(=O)n1 [Decitabine] (partner 2 µM)
Procedure, shortened: as §1

[4] = compound: O=C1NC(=O)[C@@H](c2cn3c4c(cccc24)CCC3)[C@@H]1c1c[nH]c2ccccc12 [Tivantinib] + O=C(CCCCCCC(=O)Nc1ccccc1)NO [Vorinostat] (partner 1 µM)
Procedure, shortened: as §1

Cell Line | relative viability ([1]; first compound 0.01 µM) | relative viability ([1]; first compound 0.03162 µM) | relative viability ([1]; first compound 0.1 µM) | relative viability ([1]; first compound 0.3162 µM) | relative viability ([1]; first compound 1 µM) | relative viability ([2]; first compound 0.01 µM) | relative viability ([2]; first compound 0.03162 µM) | relative viability ([2]; first compound 0.1 µM) | relative viability ([2]; first compound 0.3162 µM) | relative viability ([3]; first compound 0.01 µM) | relative viability ([3]; first compound 0.03162 µM) | relative viability ([3]; first compound 0.1 µM) | relative viability ([3]; first compound 0.3162 µM) | relative viability ([4]; first compound 0.01 µM) | relative viability ([4]; first compound 0.03162 µM) | relative viability ([4]; first compound 0.1 µM) | relative viability ([4]; first compound 0.3162 µM)
NCI-H661 | 0.772 | 0.778 | 0.813 | 0.845 | 0.846 | 0.884 | 0.869 | 0.736 | 0.4 | 0.565 | 0.542 | 0.558 | 0.398 | 0.849 | 0.792 | 0.752 | 0.659
NCI-H1651 | 0.604 | 0.488 | 0.583 | 0.51 | 0.538 | 0.386 | 0.354 | 0.391 | 0.475 | 0.592 | 0.659 | 0.608 | 0.583 | 0.554 | 0.612 | 0.559 | 0.542
NCI-H2087 | 0.657 | 0.779 | 0.968 | 0.664 | 0.877 | 0.83 | 0.942 | 0.825 | 0.913 | 0.326 | 0.311 | 0.21 | 0.196 | 0.724 | 0.672 | 0.722 | 0.477
NCI-H1793 | 0.8 | 0.741 | 0.698 | 0.863 | 0.698 | 0.345 | 0.419 | 0.376 | 0.346 | 0.502 | 0.497 | 0.495 | 0.404 | 0.851 | 0.875 | 0.663 | 0.474
LCLC-103H | 0.752 | 0.791 | 0.754 | 0.811 | 0.746 | 0.424 | 0.428 | 0.429 | 0.436 | 0.658 | 0.762 | 0.731 | 0.708 | 0.756 | 0.642 | 0.749 | 0.936
COR-L 105 | 0.842 | 0.957 | 0.904 | 1.08 | 0.922 | 0.42 | 0.287 | 0.334 | 0.216 | 0.641 | 0.662 | 0.589 | 0.596 | 0.89 | 0.786 | 0.722 | 0.771
NCI-H1437 | 0.843 | 0.868 | 0.781 | 0.857 | 0.628 | 0.427 | 0.334 | 0.429 | 0.376 | 0.57 | 0.568 | 0.497 | 0.545 | 0.877 | 0.82 | 0.829 | 0.853
HARA | 0.568 | 0.499 | 0.532 | 0.626 | 0.502 | 0.293 | 0.302 | 0.299 | 0.225 | 0.457 | 0.61 | 0.469 | 0.543 | 0.446 | 0.512 | 0.607 | 0.434
NCI-H2009 | 0.847 | 0.73 | 0.692 | 0.697 | 0.7 | 0.381 | 0.255 | 0.301 | 0.285 | 0.361 | 0.365 | 0.328 | 0.391 | 0.735 | 0.672 | 0.746 | 0.715
NCI-H1755 | 0.739 | 0.941 | 0.662 | 0.903 | 0.832 | 0.482 | 0.437 | 0.401 | 0.39 | 0.727 | 0.67 | 0.725 | 0.765 | 0.861 | 0.793 | 0.695 | 0.917
LU99A | 0.58 | 0.576 | 0.43 | 0.501 | 0.455 | 0.533 | 0.64 | 0.527 | 0.402 | 0.869 | 0.853 | 0.865 | 0.849 | 0.514 | 0.438 | 0.456 | 0.47
ChaGo-K-1 | 0.721 | 0.81 | 0.724 | 0.745 | 0.793 | 0.584 | 0.604 | 0.612 | 0.564 | 0.541 | 0.52 | 0.562 | 0.522 | 0.76 | 0.704 | 0.704 | 0.717
NCI-H23 | 0.722 | 0.565 | 0.621 | 0.517 | 0.459 | 0.876 | 0.809 | 0.699 | 0.782 | 0.333 | 0.294 | 0.31 | 0.318 | 0.679 | 0.527 | 0.624 | 0.671
PC-3 [JPC-3] | 0.75 |  | 0.824 | 0.7 | 0.582 | 0.962 | 1.02 | 0.988 | 0.585 | 0.766 | 0.798 | 0.839 | 0.6 | 0.791 | 0.979 | 0.891 | 0.807
NCI-H520 | 0.703 | 0.641 | 0.733 | 0.765 | 0.652 | 0.204 | 0.185 | 0.193 | 0.221 | 0.462 | 0.454 | 0.46 | 0.436 | 0.672 | 0.672 | 0.694 | 0.703
NCI-H1666 | 1.1 | 1.01 | 0.991 | 1.09 | 1.06 | 0.765 | 0.785 | 0.77 | 0.742 | 0.745 | 0.684 | 0.748 | 0.747 | 1.04 | 0.915 | 1 | 0.913
NCI-H727 | 1.35 | 1.31 | 1.06 | 1.32 | 1.07 | 0.529 | 0.344 | 0.306 | 0.275 | 0.748 | 0.924 | 0.882 |  | 1.11 | 1.22 | 1.35 | 

Cell Line | relative viability ([1]; first compound 0.01 µM) | relative viability ([1]; first compound 0.03162 µM) | relative viability ([1]; first compound 0.1 µM) | relative viability ([1]; first compound 0.3162 µM) | relative viability ([1]; first compound 1 µM) | relative viability ([2]; first compound 0.01 µM) | relative viability ([2]; first compound 0.03162 µM) | relative viability ([2]; first compound 0.1 µM) | relative viability ([2]; first compound 0.3162 µM) | relative viability ([3]; first compound 0.01 µM) | relative viability ([3]; first compound 0.03162 µM) | relative viability ([3]; first compound 0.1 µM) | relative viability ([3]; first compound 0.3162 µM) | relative viability ([4]; first compound 0.01 µM) | relative viability ([4]; first compound 0.03162 µM) | relative viability ([4]; first compound 0.1 µM) | relative viability ([4]; first compound 0.3162 µM)
HCC-15 | 0.954 | 0.888 | 0.844 | 0.877 | 0.775 | 0.609 | 0.591 | 0.587 | 0.639 | 0.715 | 0.636 | 0.538 | 0.755 | 0.827 | 0.82 | 0.795 | 0.793
NCI-H647 | 0.631 | 0.66 | 0.366 | 0.679 | 0.722 | 0.188 | 0.194 | 0.149 | 0.195 | 0.437 | 0.305 | 0.381 | 0.357 | 0.541 | 0.598 | 0.579 | 0.962
NCI-H1650 | 0.454 | 0.516 | 0.582 | 0.812 | 0.676 | 0.41 | 0.289 | 0.276 | 0.313 | 0.406 | 0.389 | 0.416 | 0.413 | 0.605 | 0.448 | 0.651 | 0.553
NCI-H2347 | 0.629 | 0.807 | 0.383 | 0.707 | 0.645 | 0.345 | 0.267 | 0.283 | 0.306 | 0.699 | 0.592 | 0.623 | 0.629 | 0.622 | 0.436 | 0.518 | 0.498
LOU-NH91 | 0.996 | 0.913 | 0.878 | 0.886 | 0.867 | 0.586 | 0.565 | 0.568 | 0.464 | 0.825 | 0.805 | 0.803 | 0.669 | 0.838 | 0.811 | 0.916 | 0.749
H3255 | 0.811 | 0.744 | 0.838 | 0.853 | 0.726 | 0.35 | 0.38 | 0.361 |  |  | 0.53 | 0.591 | 0.27 |  | 0.843 | 0.753 | 0.295
NCI-H522 | 1 | 0.876 | 0.855 | 0.92 | 0.8 | 0.902 | 0.712 | 0.831 | 0.864 | 0.715 | 0.551 | 0.633 | 0.535 | 0.906 | 0.754 | 0.973 | 0.548
NCI-H1975 | 0.729 | 0.684 | 0.638 | 0.71 | 0.678 | 0.357 | 0.372 | 0.276 | 0.281 | 0.446 | 0.395 | 0.358 | 0.34 | 0.752 | 0.754 | 0.685 | 0.77
NCI-H3122 | 0.976 | 0.938 | 0.765 | 1.14 | 0.796 | 0.808 | 0.808 | 0.788 | 0.686 | 0.434 | 0.484 | 0.398 | 0.434 | 1.09 | 0.943 | 0.947 | 1.11
NCI-H441 | 0.98 | 0.705 | 0.657 | 1 | 0.832 | 0.801 | 0.555 | 0.356 | 0.433 | 0.22 | 0.261 | 0.139 | 0.239 | 0.844 | 0.762 | 0.563 | 0.708
NCI-H2170 | 0.793 | 0.928 | 0.697 | 0.985 | 0.793 | 0.659 | 0.469 | 0.558 |  | 0.47 | 0.48 | 0.486 |  | 0.852 | 0.812 | 0.74 | 
SW 900 | 0.548 |  | 0.428 | 0.574 | 0.435 | 0.582 | 0.735 | 0.467 | 0.611 | 0.461 | 0.46 | 0.482 | 0.443 | 0.501 | 0.438 | 0.593 | 0.444
NCI-H1395 | 0.766 | 0.601 | 0.96 | 0.689 | 0.695 | 0.396 | 0.339 | 0.437 | 0.434 | 0.736 | 0.665 | 0.845 | 0.713 | 0.749 | 0.802 | 0.722 | 0.666
LC-2-ad | 0.726 | 0.674 | 0.67 | 0.736 | 0.679 | 0.554 | 0.527 | 0.641 | 0.477 | 0.858 | 0.838 | 0.815 | 0.804 | 0.694 | 0.694 | 0.655 | 0.715
NCI-H358 | 0.784 | 0.71 | 0.633 | 0.729 | 0.611 | 0.128 | 0.165 | 0.143 | 0.109 | 0.212 | 0.227 | 0.189 | 0.145 | 0.704 | 0.567 | 0.658 | 0.233
PC-14 | 0.95 | 0.678 | 0.704 | 0.875 | 0.633 | 0.29 | 0.27 | 0.234 | 0.0998 | 0.238 | 0.234 | 0.223 | 0.142 | 0.832 | 0.821 | 0.755 | 0.356

From the supplement of paper PMC10307832
